In ChEMBL document CHEMBL1201862, “PubChem BioAssay data set” (2004):
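The compound was tested at five concentrations on cells cultured in 96-well plates, with a 48-hour exposure period. Abbreviation: GI50, concentration required for 50% inhibition of growth.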 The source made the active and inactive calls. Cut-off read from the data, not from the text of the source: active = GI50 up to about 1.1 µM and inactive = higher. Peptide text beside a SMILES is read from it.

Legend:
Assay in all cases: NCI anticancer screen, dose series, 48 h
TK-10 = test system: TK-10
Malme-3M = test system: Malme-3M
HCT-116 = test system: HCT-116
NCI-H460 = test system: NCI-H460
SK-MEL-5 = test system: SK-MEL-5
HT-29 = test system: HT-29
SNB-19 = test system: SNB-19
UO-31 = test system: UO-31
HOP-62 = test system: HOP-62
U-251 = test system: U-251
SK-MEL-2 = test system: SK-MEL-2
HL-60 = test system: HL-60
SF-295 = test system: SF-295
NCI-H23 = test system: NCI-H23
A498 = test system: A498
MCF7 = test system: MCF7
SF-539 = test system: SF-539
NCI-H522 = test system: NCI-H522
SNB-75 = test system: SNB-75
HCC 2998 = test system: HCC 2998

Measured: GI50

Cc1nc(O)c(O)c(CN2CCCCC2)n1
inactive: TK-10 > 100 µM | Malme-3M > 100 µM | HCT-116 > 100 µM | NCI-H460 > 100 µM | SK-MEL-5 > 100 µM | HT-29 > 100 µM | SNB-19 > 100 µM | UO-31 > 100 µM | HOP-62 > 100 µM | U-251 > 100 µM | SK-MEL-2 > 100 µM | HL-60 42.7 µM | SF-295 > 100 µM | NCI-H23 > 100 µM | A498 > 100 µM | MCF7 > 100 µM | SF-539 > 100 µM | NCI-H522 > 100 µM | SNB-75 > 100 µM

CCOC(=O)c1c(N2CCCC2)[nH]c(=O)c(C(c2ccc(Cl)c([N+](=O)[O-])c2)c2c(O)c(C(=O)OCC)c(N3CCCC3)[nH]c2=O)c1O
inactive: TK-10 19.2 µM | Malme-3M 38.9 µM | HCT-116 34 µM | NCI-H460 > 100 µM | HCC 2998 > 100 µM | SK-MEL-5 37.8 µM | SNB-19 15.5 µM | UO-31 24.7 µM | HOP-62 27.4 µM | U-251 14.9 µM | SF-295 37.6 µM | NCI-H23 22 µM | A498 33 µM | MCF7 28.6 µM | SF-539 19.2 µM | NCI-H522 24.5 µM | SNB-75 9.86 µM

c1ccc(-c2cc(-c3cc(-c4ccccc4)[nH]n3)[nH]n2)cc1
inactive: TK-10 > 100 µM | Malme-3M > 100 µM | HCT-116 > 100 µM | NCI-H460 > 100 µM | HCC 2998 > 100 µM | SK-MEL-5 > 100 µM | HT-29 > 100 µM | SNB-19 > 100 µM | UO-31 > 100 µM | HOP-62 > 100 µM | U-251 > 100 µM | SK-MEL-2 > 100 µM | SF-295 > 100 µM | NCI-H23 > 100 µM | A498 > 100 µM | MCF7 > 100 µM | SF-539 > 100 µM | NCI-H522 > 100 µM | SNB-75 > 100 µM

CC(=O)NC(CS)C(=O)NC(CO)C(=O)NC(CO)C(=O)NC(Cc1c[nH]c2ccccc12)C(=O)N1CCCC1C(=O)NC(CO)C(=O)NC(Cc1c[nH]c2ccccc12)C(=O)NC(Cc1c[nH]cn1)C(=O)NC(CO)C(=O)NC(Cc1c[nH]c2ccccc12)C(=O)NCC(=O)NCC(=O)NC(C)C(=O)NC(CCC(N)=O)C(=O)NC(CCCCN)C(=O)NC(C)C(=O)NC(CCCNC(=N)N)C(=O)NC(CCCCN)C(N)=O (stereo not given) (Ac-CSSWPSWHSWGGAQKARK-NH2; configuration not given here)
inactive: TK-10 > 50 µM | Malme-3M 10.8 µM | HCT-116 34 µM | NCI-H460 12.4 µM | SK-MEL-5 11 µM | HT-29 > 50 µM | SNB-19 > 50 µM | UO-31 > 50 µM | HOP-62 > 50 µM | U-251 13 µM | SK-MEL-2 26.4 µM | HL-60 12.4 µM | SF-295 > 50 µM | NCI-H23 14.8 µM | A498 > 50 µM | MCF7 18.9 µM | SF-539 17.1 µM | NCI-H522 20.5 µM | SNB-75 13.9 µM

Clc1ccc(OCc2nnc(CCCCCCCCc3nnc(COc4ccc(Cl)cc4Cl)n3Nc3ccccc3)n2Nc2ccccc2)c(Cl)c1
inactive: TK-10 16.8 µM | Malme-3M 19.5 µM | HCT-116 11.4 µM | NCI-H460 4.15 µM | HCC 2998 7.21 µM | SK-MEL-5 2.23 µM | HT-29 13.8 µM | SNB-19 17.7 µM | UO-31 11.8 µM | HOP-62 3.02 µM | U-251 13.1 µM | SK-MEL-2 8.04 µM | SF-295 1.38 µM | NCI-H23 15.1 µM | A498 21.4 µM | MCF7 7.06 µM | SF-539 11.4 µM | NCI-H522 8.75 µM | SNB-75 23 µM

Cc1nc2c(=O)n(C)c(=O)nc-2n(CCO)c1C
inactive: TK-10 > 100 µM | Malme-3M > 100 µM | HCT-116 > 100 µM | NCI-H460 > 100 µM | HCC 2998 > 100 µM | SK-MEL-5 > 100 µM | HT-29 > 100 µM | SNB-19 > 100 µM | UO-31 > 100 µM | HOP-62 > 100 µM | U-251 > 100 µM | SK-MEL-2 > 100 µM | SF-295 > 100 µM | NCI-H23 > 100 µM | A498 > 100 µM | MCF7 > 100 µM | SF-539 > 100 µM | NCI-H522 > 100 µM | SNB-75 > 100 µM

CCCCCN1C(=O)C(Cc2ccccc2)N=C(c2ccc(O)cc2)c2cc(Cl)ccc21 (stereo not given)
inactive: TK-10 12.9 µM | Malme-3M 7.57 µM | HCT-116 7.94 µM | NCI-H460 7.73 µM | HT-29 9.06 µM | SNB-19 14.5 µM | UO-31 10.4 µM | HOP-62 23.7 µM | U-251 9.35 µM | SK-MEL-2 14.6 µM | HL-60 2.98 µM | SF-295 6.93 µM | NCI-H23 4.98 µM | A498 > 33.7 µM | MCF7 9.98 µM | SF-539 22.2 µM | NCI-H522 2.55 µM | SNB-75 4.61 µM

Nc1c(S(=O)(=O)O)cc(Nc2cccc(S(N)(=O)=O)c2)c2c1C(=O)c1ccccc1C2=O
inactive: TK-10 > 100 µM | Malme-3M 36.5 µM | HCT-116 > 100 µM | NCI-H460 87.5 µM | SK-MEL-5 37.5 µM | HT-29 29.6 µM | SNB-19 > 100 µM | UO-31 97.3 µM | HOP-62 23.4 µM | U-251 46.5 µM | SK-MEL-2 75.7 µM | HL-60 > 100 µM | SF-295 49.7 µM | NCI-H23 35.1 µM | A498 > 100 µM | MCF7 > 100 µM | SF-539 > 100 µM | NCI-H522 57.8 µM | SNB-75 29.6 µM

O=C(/C=C/c1ccc(O)cc1)c1cc(O)cc(O)c1
inactive: TK-10 24.4 µM | Malme-3M 20.4 µM | HCT-116 13.2 µM | SK-MEL-5 15.5 µM | HT-29 17.5 µM | SNB-19 16.7 µM | UO-31 10 µM | HOP-62 15.6 µM | U-251 14.5 µM | SK-MEL-2 18.1 µM | HL-60 1.92 µM | SF-295 15.7 µM | NCI-H23 20.5 µM | A498 14.9 µM | MCF7 3.54 µM | SF-539 13.5 µM | NCI-H522 3.95 µM | SNB-75 17.6 µM

C[N+](C)(C)c1nc(N)nc2c1ncn2C1OC(CO)C(O)C1O (stereo not given)
inactive: TK-10 > 100 µM | Malme-3M > 100 µM | HCT-116 > 100 µM | NCI-H460 > 100 µM | HCC 2998 > 100 µM | SK-MEL-5 > 100 µM | HT-29 > 100 µM | SNB-19 > 100 µM | UO-31 > 100 µM | HOP-62 > 100 µM | U-251 > 100 µM | SK-MEL-2 > 100 µM | NCI-H23 > 100 µM | A498 > 100 µM | MCF7 > 100 µM | SF-539 > 100 µM | NCI-H522 > 100 µM | SNB-75 > 100 µM
